Test results published in PubChem BioAssay (NCI).
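Each compound was tested at five concentrations against cells in 96-well plates for 48 hours. TGI denotes the concentration required for complete inhibition of growth.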

Assays:
Test in all cases: NCI anticancer screen, dose series, 48 h
[1] = test system: MOLT-4 leukemia
[2] = test system: DMS 273 small cell lung
[3] = test system: A549 NSCLC
[4] = test system: 786-0 renal
[5] = test system: RXF 393 renal
[6] = test system: SW-620 colon
[7] = test system: CAKI-1 renal
[8] = test system: HT29 colon
[9] = test system: HCT-116 colon
[10] = test system: DMS 114 small cell lung
[11] = test system: HOP-18 NSCLC
[12] = test system: SNB-78 CNS
[13] = test system: NCI-H23 lung
[14] = test system: NCI-H460 lung
[15] = test system: OVCAR-3 ovarian
[16] = test system: HOP-62 NSCLC
[17] = test system: M19-MEL melanoma
[18] = test system: IGROV1 ovarian
[19] = test system: EKVX NSCLC
[20] = test system: UACC-257 melanoma
[21] = test system: COLO 205 colon
[22] = test system: M14 melanoma
[23] = test system: HCC-2998 colon
[24] = test system: TK-10 renal
[25] = test system: SN12C renal
[26] = test system: SF-268 CNS
[27] = test system: SF-295 CNS
[28] = test system: SNB-19 CNS
[29] = test system: SK-MEL-28 melanoma
[30] = test system: UO-31 renal
[31] = test system: K-562 leukemia
[32] = test system: MALME-3M melanoma
[33] = test system: KM20L2 colon
[34] = test system: OVCAR-5 ovarian
[35] = test system: KM12 colon
[36] = test system: U251 CNS
[37] = test system: OVCAR-8 ovarian
[38] = test system: LOX IMVI melanoma
[39] = test system: CCRF-CEM leukemia
[40] = test system: SF-539 CNS
[41] = test system: NCI-H522 lung
[42] = test system: DLD-1 colon
[43] = test system: SK-OV-3 ovarian
[44] = test system: ACHN renal
[45] = test system: SK-MEL-2 melanoma
[46] = test system: LXFL 529 NSCLC
[47] = test system: UACC-62 melanoma
[48] = test system: RPMI-8226 leukemia
[49] = test system: NCI-H226 lung
[50] = test system: SNB-75 CNS
[51] = test system: XF 498 CNS
[52] = test system: HL-60(TB) leukemia
[53] = test system: HS 578T breast
[54] = test system: SR leukemia
[55] = test system: DU-145 prostate
[56] = test system: SK-MEL-5 melanoma
[57] = test system: BT-549 breast
[58] = test system: PC-3 prostate
[59] = test system: MCF7 breast
[60] = test system: MDA-MB-231 breast
[61] = test system: NCI/ADR-RES ovarian
[62] = test system: OVCAR-4 ovarian
[63] = test system: HCT-15 colon
[64] = test system: HOP-92 NSCLC
[65] = test system: A498 renal
[66] = test system: T-47D breast
[67] = test system: MDA-MB-435
[68] = test system: MDA-N

Question: How did the TGI [1] turn out when `O=C1CC23CC(=O)CC2(C1)c1ccccc1C3=O` (stereo not given) was run?
Answer: > 100 µM

Question: What about the TGI [2] of the same compound?
Answer: > 100 µM

Question: And the TGI [3]?
Answer: > 100 µM

Question: What about the TGI [4] of the same compound?
Answer: > 100 µM

Question: What about the TGI [5] of the same compound?
Answer: > 100 µM

Question: And the TGI [6]?
Answer: > 100 µM

Question: And the TGI [7]?
Answer: > 100 µM

Question: What about the TGI [8] of the same compound?
Answer: > 100 µM

Question: What about the TGI [9] of the same compound?
Answer: > 100 µM

Question: And the TGI [10]?
Answer: > 100 µM

Question: And the TGI [11]?
Answer: > 100 µM

Question: And the TGI [12]?
Answer: > 100 µM

Question: What about the TGI [13] of the same compound?
Answer: > 100 µM

Question: And the TGI [14]?
Answer: > 100 µM

Question: What about the TGI [15] of the same compound?
Answer: > 100 µM

Question: What about the TGI [16] of the same compound?
Answer: > 100 µM

Question: And the TGI [17]?
Answer: > 100 µM

Question: What about the TGI [18] of the same compound?
Answer: > 100 µM

Question: What about the TGI [19] of the same compound?
Answer: > 100 µM

Question: What about the TGI [20] of the same compound?
Answer: > 100 µM

Question: What about the TGI [21] of the same compound?
Answer: > 100 µM

Question: And the TGI [22]?
Answer: > 100 µM

Question: And the TGI [23]?
Answer: > 100 µM

Question: And the TGI [24]?
Answer: > 100 µM

Question: And the TGI [25]?
Answer: > 100 µM

Question: What about the TGI [26] of the same compound?
Answer: > 100 µM

Question: And the TGI [27]?
Answer: > 100 µM

Question: What about the TGI [28] of the same compound?
Answer: > 100 µM

Question: What about the TGI [29] of the same compound?
Answer: > 100 µM

Question: What about the TGI [30] of the same compound?
Answer: > 100 µM

Question: What about the TGI [31] of the same compound?
Answer: > 100 µM

Question: What about the TGI [32] of the same compound?
Answer: > 100 µM

Question: And the TGI [33]?
Answer: > 100 µM

Question: What about the TGI [34] of the same compound?
Answer: > 100 µM

Question: What about the TGI [35] of the same compound?
Answer: > 100 µM

Question: And the TGI [36]?
Answer: > 100 µM

Question: And the TGI [37]?
Answer: > 100 µM

Question: And the TGI [38]?
Answer: > 100 µM

Question: What about the TGI [39] of the same compound?
Answer: > 100 µM

Question: And the TGI [40]?
Answer: > 100 µM

Question: What about the TGI [41] of the same compound?
Answer: > 100 µM

Question: What about the TGI [42] of the same compound?
Answer: > 100 µM

Question: And the TGI [43]?
Answer: > 100 µM

Question: And the TGI [44]?
Answer: > 100 µM

Question: What about the TGI [45] of the same compound?
Answer: > 100 µM

Question: What about the TGI [46] of the same compound?
Answer: > 100 µM

Question: What about the TGI [47] of the same compound?
Answer: > 100 µM

Question: What about the TGI [48] of the same compound?
Answer: > 100 µM

Question: What about the TGI [49] of the same compound?
Answer: > 100 µM

Question: And the TGI [50]?
Answer: > 100 µM

Question: What about the TGI [51] of the same compound?
Answer: > 100 µM

Question: What about the TGI [52] of the same compound?
Answer: > 100 µM

Question: Which TGI [1] does the source give for `COc1cc2c(cc1OC)C(=O)/C(=C/c1ccccc1)C2` here?
Answer: 43.9 µM

Question: What about the TGI [3] of the same compound?
Answer: > 100 µM

Question: And the TGI [53]?
Answer: > 100 µM

Question: What about the TGI [4] of the same compound?
Answer: > 100 µM

Question: What about the TGI [5] of the same compound?
Answer: > 100 µM

Question: What about the TGI [6] of the same compound?
Answer: > 100 µM

Question: And the TGI [54]?
Answer: > 100 µM

Question: And the TGI [55]?
Answer: > 100 µM

Question: What about the TGI [7] of the same compound?
Answer: > 100 µM

Question: And the TGI [8]?
Answer: > 100 µM

Question: And the TGI [9]?
Answer: > 100 µM

Question: And the TGI [56]?
Answer: > 84.1 µM

Question: What about the TGI [57] of the same compound?
Answer: > 100 µM

Question: What about the TGI [13] of the same compound?
Answer: > 100 µM

Question: What about the TGI [14] of the same compound?
Answer: > 100 µM

Question: And the TGI [15]?
Answer: > 100 µM

Question: What about the TGI [58] of the same compound?
Answer: > 100 µM

Question: And the TGI [16]?
Answer: > 100 µM

Question: And the TGI [59]?
Answer: > 100 µM

Question: What about the TGI [60] of the same compound?
Answer: > 100 µM

Question: What about the TGI [18] of the same compound?
Answer: > 100 µM

Question: What about the TGI [19] of the same compound?
Answer: > 100 µM

Question: And the TGI [20]?
Answer: > 100 µM

Question: And the TGI [21]?
Answer: > 100 µM

Question: And the TGI [22]?
Answer: > 100 µM

Question: What about the TGI [23] of the same compound?
Answer: > 100 µM

Question: What about the TGI [24] of the same compound?
Answer: > 100 µM

Question: What about the TGI [61] of the same compound?
Answer: > 100 µM

Question: What about the TGI [25] of the same compound?
Answer: > 100 µM

Question: What about the TGI [26] of the same compound?
Answer: > 100 µM

Question: And the TGI [27]?
Answer: > 100 µM

Question: And the TGI [28]?
Answer: > 100 µM

Question: And the TGI [62]?
Answer: > 100 µM

Question: And the TGI [63]?
Answer: > 100 µM

Question: What about the TGI [29] of the same compound?
Answer: > 100 µM

Question: And the TGI [64]?
Answer: > 100 µM

Question: What about the TGI [30] of the same compound?
Answer: > 100 µM

Question: What about the TGI [31] of the same compound?
Answer: > 65.6 µM

Question: And the TGI [32]?
Answer: > 100 µM

Question: And the TGI [34]?
Answer: > 100 µM

Question: And the TGI [35]?
Answer: > 100 µM

Question: What about the TGI [36] of the same compound?
Answer: > 100 µM

Question: And the TGI [37]?
Answer: > 100 µM

Question: What about the TGI [38] of the same compound?
Answer: > 100 µM

Question: And the TGI [65]?
Answer: 7.24 µM

Question: And the TGI [39]?
Answer: 99.4 µM

Question: And the TGI [40]?
Answer: > 100 µM

Question: And the TGI [41]?
Answer: > 100 µM

Question: What about the TGI [43] of the same compound?
Answer: > 100 µM

Question: And the TGI [66]?
Answer: > 100 µM

Question: And the TGI [44]?
Answer: > 100 µM

Question: And the TGI [45]?
Answer: > 100 µM

Question: And the TGI [67]?
Answer: > 100 µM

Question: What about the TGI [47] of the same compound?
Answer: > 67.7 µM

Question: What about the TGI [48] of the same compound?
Answer: 71.6 µM

Question: What about the TGI [68] of the same compound?
Answer: > 100 µM

Question: What about the TGI [49] of the same compound?
Answer: > 100 µM

Question: What about the TGI [50] of the same compound?
Answer: 98.1 µM

Question: And the TGI [52]?
Answer: 50 µM

Question: Which results are given for `CCCCN1C(=O)C[C@H]2[C@@H]3CCc4cc(OCCN5CCCC5)ccc4[C@H]3CC[C@]2(C)C1=O`?
Answer: TGI [1]: 14.3 µM; TGI [3]: 22.5 µM; TGI [53]: 39.8 µM; TGI [4]: 9.64 µM; TGI [5]: 4.59 µM; TGI [6]: 25.1 µM; TGI [54]: 23.6 µM; TGI [55]: 27 µM; TGI [7]: 19.2 µM; TGI [8]: 5.06 µM; TGI [9]: 16.4 µM; TGI [56]: 15.7 µM; TGI [57]: 26.6 µM; TGI [13]: 25.6 µM; TGI [14]: 21.3 µM; TGI [15]: 23.7 µM; TGI [58]: 20.4 µM; TGI [16]: 12.2 µM; TGI [59]: 15.6 µM; TGI [60]: 15.7 µM; TGI [18]: 30.7 µM; TGI [19]: 30.1 µM; TGI [20]: 13.4 µM; TGI [21]: 3.95 µM; TGI [22]: 3.92 µM; TGI [23]: 15.8 µM; TGI [24]: 28.3 µM; TGI [61]: 38 µM; TGI [25]: 30.2 µM; TGI [26]: 28 µM; TGI [27]: 9.63 µM; TGI [28]: 26.5 µM; TGI [62]: 27.6 µM; TGI [63]: 22.4 µM; TGI [29]: 12 µM; TGI [64]: 18.3 µM; TGI [30]: 15.6 µM; TGI [31]: 7.23 µM; TGI [32]: 16.1 µM; TGI [34]: 24.3 µM; TGI [35]: 21.9 µM; TGI [36]: 19.4 µM; TGI [37]: 30.8 µM; TGI [38]: 10.8 µM; TGI [65]: 29.4 µM; TGI [39]: 15 µM; TGI [40]: 21.4 µM; TGI [41]: 22.7 µM; TGI [43]: 27.4 µM; TGI [66]: 30.4 µM; TGI [44]: 25.5 µM; TGI [45]: 19.2 µM; TGI [67]: 19.1 µM; TGI [47]: 10.4 µM; TGI [48]: 9.53 µM; TGI [68]: 15.1 µM; TGI [49]: 21.4 µM; TGI [50]: 14 µM; TGI [52]: > 23.2 µM
